Assay results published in paper PMC5446891, “Inhibition of α-Amylases by Condensed and Hydrolysable Tannins: Focus on Kinetics and Hypoglycemic Actions” (Enzyme Research, 2017).

Key:
[1] = target: T1, porcine pancreatic α-amylase (Sus scrofa, UniProt P00690); design: method as in doi:10.1016/j.foodres.2013.12.004, PMID 8944767; conditions: cited from earlier work
T1 construct: purchased Sigma-Aldrich Co. Type VI-B
T1 sequence (P00690 16-511): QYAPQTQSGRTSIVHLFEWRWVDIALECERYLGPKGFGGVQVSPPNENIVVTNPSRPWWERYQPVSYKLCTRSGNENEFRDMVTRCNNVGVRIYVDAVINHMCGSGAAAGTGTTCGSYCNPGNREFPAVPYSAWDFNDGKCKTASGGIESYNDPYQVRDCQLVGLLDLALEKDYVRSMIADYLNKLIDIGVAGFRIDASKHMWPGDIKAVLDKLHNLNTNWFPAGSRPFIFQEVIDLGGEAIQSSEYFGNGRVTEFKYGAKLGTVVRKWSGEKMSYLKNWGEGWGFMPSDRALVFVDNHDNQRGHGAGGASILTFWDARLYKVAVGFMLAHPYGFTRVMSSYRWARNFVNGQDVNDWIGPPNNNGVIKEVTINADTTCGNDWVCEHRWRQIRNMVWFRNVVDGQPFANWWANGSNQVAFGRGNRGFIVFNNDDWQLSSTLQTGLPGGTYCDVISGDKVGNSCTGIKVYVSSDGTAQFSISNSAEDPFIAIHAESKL

[2] = system: intestinal starch absorption (in vivo α-amylase); experiment: glycemic levels of rats after starch administration; design: species or system Wistar rats; conditions: intragastric with starch 1 g/kg, 60 min; acarbose 50 mg/kg, tannins 100-500 mg/kg
Description: Male healthy Wistar rats weighing 200-250 g were used in all experiments. The rats were housed, fed, and treated in accordance with the universally accepted guidelines for animal experimentation. Prior to the investigations, the animals were kept for one week under standard environmental conditions. Throughout the experimentation period, the rats were maintained in single cages and had access to standard pelleted diet and water ad libitum. Food was withdrawn 18 h before the experiments. All experiments involving rats were done in accordance with the worldwide accepted ethical guidelines for animal experimentation and previously approved by the Ethics Committee for Animal Experimentation of the University of […]á (Protocol number 067/2014-CEUA-UEM). Rats were divided into 9 groups (n = 4 rats per group). To group I (positive control) commercial corn starch (1 g per kg body weight) was given intragastrically. Group II (negative control) received only tap water. […] Fasting blood glucose levels were determined before the administration of starch and amylase inhibitors (0 time). […] Blood glucose from cut tail tips was determined using Accu-Chek® Active Glucose Meter. […] The areas were determined with the corresponding data in Figures 6(a) and 6(b) using the numerical integration procedures of the Scientist Software from MicroMath Scientific Software (Salt Lake City, UT). […]

In the case of C[C@H]1O[C@H](O[C@H]2[C@H](O)[C@@H](O)[C@@H](O[C@H]3[C@H](O)[C@@H](O)C(O)O[C@@H]3CO)O[C@@H]2CO)[C@H](O)[C@@H](O)[C@@H]1N[C@H]1C=C(CO)[C@@H](O)[C@H](O)[C@H]1O (some centres unmarked) [acarbose], the “inhibitory potency compared with the tannins” value [1] is given as “much better inhibitor of the pancreatic α-amylase than the tannins” and the “effect on glycemic levels after starch administration” value [2] is given as “diminished the increase in blood glucose concentration”.
